Assay results published in patent US6737383B1, “Herbicidal oxadiazolidines” (priority 1999, dated 2004).

How the values were obtained:
bamyardgrass = test: Test B flood test barnyardgrass; assay type: in vivo, Echinochloa crus-galli
How it was run: (§1)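 Read-out is a visual response score from 0 (no effect) to 10 (complete control), assigned by comparison with untreated controls. Treatment was applied at the 2-leaf stage, and plants stayed in the greenhouse for twelve to sixteen days before scoring.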

crabgrass = test: Test B pre/postemergence crabgrass; assay type: in vivo, Digitaria sanguinalis
How it was run: (§2)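 Response is a visual 0-to-10 score relative to untreated plants, where 0 means no effect and 10 means complete control, taken twelve to sixteen days after application. Treatments went onto soil at planting and onto foliage of 1- to 4-leaf plants, using a surfactant-containing non-phytotoxic solvent.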

duck salad = test: Test B flood test duck salad; assay type: in vivo, Heteranthera limosa
How it was run: as §1

surinam grass = test: Test B pre/postemergence surinam grass; assay type: in vivo, Brachiaria decumbens
How it was run: as §2

morningglory = test: Test B pre/postemergence morningglory; assay type: in vivo, Ipomoea hederacea
How it was run: as §2

cocklebur = test: Test B pre/postemergence cocklebur; assay type: in vivo, Xanthium strumarium
How it was run: as §2

wild oat = test: Test B pre/postemergence wild oat; assay type: in vivo, Avena fatua
How it was run: as §2

smallflower flatsedge = test: Test B flood test smallflower flatsedge; assay type: in vivo, Cyperus difformis
How it was run: as §1

wheat = test: Test B pre/postemergence wheat; assay type: in vivo, Triticum aestivum
How it was run: as §2

soybean = test: Test B pre/postemergence soybean; assay type: in vivo, Glycine max
How it was run: as §2

giant foxtail = test: Test B pre/postemergence giant foxtail; assay type: in vivo, Setaria faberii
How it was run: as §2

pigweed = test: Test B pre/postemergence pigweed; assay type: in vivo, Amaranthus retroflexus
How it was run: as §2

velvetleaf = test: Test B pre/postemergence velvetleaf; assay type: in vivo, Abutilon theophrasti
How it was run: as §2

corn = test: Test B pre/postemergence corn; assay type: in vivo, Zea mays
How it was run: as §2

rape = test: Test B pre/postemergence rape; assay type: in vivo, Brassica napus
How it was run: as §2

blackgrass = test: Test B pre/postemergence blackgrass; assay type: in vivo, Alopecurus myosuroides
How it was run: as §2

sugar beet = test: Test B pre/postemergence sugar beet; assay type: in vivo, Beta vulgaris
How it was run: as §2

rice = test: Test B flood test rice; assay type: in vivo, Oryza sativa
How it was run: as §1

purple nutsedge = test: Test B pre/postemergence purple nutsedge; assay type: in vivo, Cyperus rotundus
How it was run: as §2

[1] = Rate 62 g/ha, flood test species, Pre-emergence, visual evaluation after twelve to sixteen days
[2] = Rate 125 g/ha, under heading Pre-emergence, flood test species, visual evaluation after twelve to sixteen days
[3] = Rate 250 g/ha, Pre-emergence (flood test species), scale 0 to 10, 0 is no effect, 10 is complete control
[4] = Rate 500 g/ha, Pre-emergence section of Table B, 0 to 10 scale (0 no effect, 10 complete control)
[5] = Postemergence, Rate 62 g/ha, scale 0 to 10, 0 is no effect, 10 is complete control
[6] = Postemergence, Rate 250 g/ha, scale of 0 to 10, 0 is no effect, 10 is complete control
[7] = Postemergence, Rate 500 g/ha, scale of 0 to 10 where 0 is no effect and 10 is complete control
[8] = Preemergence, Rate 62 g/ha, scale of 0 to 10 where 0 is no effect and 10 is complete control
[9] = Preemergence, Rate 125 g/ha, scale of 0 to 10 where 0 is no effect and 10 is complete control
[10] = Preemergence, Rate 250 g/ha, scale 0 to 10 (0 no effect, 10 complete control)
[11] = Preemergence, Rate 500 g/ha, scale of 0 to 10 where 0 is no effect and 10 is complete control
[12] = Postemergence, Rate 125 g/ha, scale of 0 to 10 where 0 is no effect and 10 is complete control

CC(C)N(C(=O)n1oc(=O)n(CC(=O)C2CC2)c1=O)c1ccc(Cl)cc1 [Compound 639]
Plant response rating, Barnyardgrass (0 to 10 scale, 0 is no effect, 10 is complete control) (bamyardgrass; [1]): 0
Barnyardgrass plant response rating (0 to 10 scale, 0 is no effect, 10 is complete control) (bamyardgrass; [2]): 0
Barnyardgrass plant response rating (bamyardgrass; [3]): 0
Barnyardgrass plant response rating (bamyardgrass; [4]): 0
Plant response rating, Crabgrass (crabgrass; [5]): 0
Crabgrass plant response rating (crabgrass; [6]): 2
Plant response rating, Crabgrass (crabgrass; [7]): 8
Crabgrass plant response rating (crabgrass; [8]): 7
Crabgrass plant response rating (crabgrass; [9]): 7
Plant response rating, Crabgrass (crabgrass; [10]): 9
Plant response rating, Crabgrass (crabgrass; [11]): 9
Plant response rating, Ducksalad (0 to 10 scale, 0 is no effect, 10 is complete control) (duck salad; [1]): 0
Ducksalad plant response rating (0 to 10 scale, 0 is no effect, 10 is complete control) (duck salad; [2]): 0
Ducksalad plant response rating (duck salad; [3]): 0
Ducksalad plant response rating (duck salad; [4]): 0
Plant response rating, B. signalgrass (surinam grass; [5]): 0
Plant response rating, B. signalgrass (surinam grass; [12]): 0
B. signalgrass plant response rating (surinam grass; [6]): 0
Plant response rating, B. signalgrass (surinam grass; [7]): 2
B. signalgrass plant response rating (surinam grass; [8]): 0
B. signalgrass plant response rating (surinam grass; [9]): 0
Plant response rating, B. signalgrass (surinam grass; [10]): 5
Plant response rating, B. signalgrass (surinam grass; [11]): 7
Plant response rating, Morningglory (morningglory; [5]): 0
Plant response rating, Morningglory (morningglory; [12]): 3
Morningglory plant response rating (morningglory; [6]): 7
Plant response rating, Morningglory (morningglory; [7]): 7
Morningglory plant response rating (morningglory; [8]): 0
Morningglory plant response rating (morningglory; [9]): 0
Plant response rating, Morningglory (morningglory; [10]): 0
Plant response rating, Morningglory (morningglory; [11]): 0
Plant response rating, Cocklebur (cocklebur; [5]): 0
Plant response rating, Cocklebur (cocklebur; [12]): 0
Cocklebur plant response rating (cocklebur; [6]): 2
Plant response rating, Cocklebur (cocklebur; [7]): 2
Cocklebur plant response rating (cocklebur; [8]): 0
Cocklebur plant response rating (cocklebur; [9]): 0
Plant response rating, Cocklebur (cocklebur; [10]): 0
Plant response rating, Cocklebur (cocklebur; [11]): 2
Plant response rating, Wild oats (wild oat; [5]): 1
Plant response rating, Wild oats (wild oat; [12]): 1
Wild oats plant response rating (wild oat; [6]): 1
Wild oats plant response rating (wild oat; [8]): 0
Wild oats plant response rating (wild oat; [9]): 0
Plant response rating, Wild oats (wild oat; [10]): 0
Plant response rating, Wild oats (wild oat; [11]): 3
Plant response rating, S. Flatsedge (0 to 10 scale, 0 is no effect, 10 is complete control) (smallflower flatsedge; [1]): 0
S. Flatsedge plant response rating (0 to 10 scale, 0 is no effect, 10 is complete control) (smallflower flatsedge; [2]): 0
S. Flatsedge plant response rating (smallflower flatsedge; [3]): 0
S. Flatsedge plant response rating (smallflower flatsedge; [4]): 0
Plant response rating, Wheat (wheat; [5]): 0
Plant response rating, Wheat (wheat; [12]): 0
Wheat plant response rating (wheat; [6]): 0
Wheat plant response rating (wheat; [8]): 0
Wheat plant response rating (wheat; [9]): 0
Plant response rating, Wheat (wheat; [10]): 0
Plant response rating, Wheat (wheat; [11]): 0
Plant response rating, Soybean (soybean; [5]): 0
Plant response rating, Soybean (soybean; [12]): 0
Soybean plant response rating (soybean; [6]): 3
Soybean plant response rating (soybean; [8]): 0
Soybean plant response rating (soybean; [9]): 0
Plant response rating, Soybean (soybean; [10]): 0
Plant response rating, Soybean (soybean; [11]): 3
Plant response rating, Giant foxtail (giant foxtail; [5]): 0
Plant response rating, Giant foxtail (giant foxtail; [12]): 0
Giant foxtail plant response rating (giant foxtail; [6]): 6
Plant response rating, Giant foxtail (giant foxtail; [7]): 7
Giant foxtail plant response rating (giant foxtail; [8]): 7
Giant foxtail plant response rating (giant foxtail; [9]): 9
Plant response rating, Giant foxtail (giant foxtail; [10]): 9
Plant response rating, Giant foxtail (giant foxtail; [11]): 9
Plant response rating, Redroot pigweed (pigweed; [5]): 3
Plant response rating, Redroot pigweed (pigweed; [12]): 4
Redroot pigweed plant response rating (pigweed; [6]): 4
Redroot pigweed plant response rating (pigweed; [8]): 0
Redroot pigweed plant response rating (pigweed; [9]): 0
Plant response rating, Redroot pigweed (pigweed; [10]): 2
Plant response rating, Redroot pigweed (pigweed; [11]): 10
Plant response rating, Velvetleaf (velvetleaf; [5]): 0
Plant response rating, Velvetleaf (velvetleaf; [12]): 0
Velvetleaf plant response rating (velvetleaf; [6]): 0
Velvetleaf plant response rating (velvetleaf; [8]): 0
Velvetleaf plant response rating (velvetleaf; [9]): 0
Plant response rating, Velvetleaf (velvetleaf; [10]): 0
Plant response rating, Velvetleaf (velvetleaf; [11]): 3
Plant response rating, Corn (corn; [5]): 0
Plant response rating, Corn (corn; [12]): 0
Corn plant response rating (corn; [6]): 0
Plant response rating, Corn (corn; [7]): 0
Corn plant response rating (corn; [8]): 0
Corn plant response rating (corn; [9]): 0
Plant response rating, Corn (corn; [10]): 0
Plant response rating, Corn (corn; [11]): 0
Plant response rating, Rape (rape; [5]): 0
Plant response rating, Rape (rape; [12]): 0
Rape plant response rating (rape; [6]): 0
Plant response rating, Rape (rape; [7]): 3
Rape plant response rating (rape; [8]): 0
Rape plant response rating (rape; [9]): 0
Plant response rating, Rape (rape; [10]): 3
Plant response rating, Rape (rape; [11]): 10
Plant response rating, Blackgrass (blackgrass; [5]): 0
Plant response rating, Blackgrass (blackgrass; [12]): 0
Blackgrass plant response rating (blackgrass; [6]): 2
Plant response rating, Blackgrass (blackgrass; [7]): 6
Blackgrass plant response rating (blackgrass; [8]): 0
Blackgrass plant response rating (blackgrass; [9]): 0
Plant response rating, Blackgrass (blackgrass; [10]): 2
Plant response rating, Blackgrass (blackgrass; [11]): 2
Plant response rating, Sugarbeets (sugar beet; [5]): 0
Plant response rating, Sugarbeets (sugar beet; [12]): 0
Sugarbeets plant response rating (sugar beet; [6]): 0
Sugarbeets plant response rating (sugar beet; [8]): 0
Sugarbeets plant response rating (sugar beet; [9]): 0
Plant response rating, Sugarbeets (sugar beet; [10]): 0
Plant response rating, Sugarbeets (sugar beet; [11]): 6
Plant response rating, Rice (0 to 10 scale, 0 is no effect, 10 is complete control) (rice; [1]): 0
Rice plant response rating (0 to 10 scale, 0 is no effect, 10 is complete control) (rice; [2]): 0
Rice plant response rating (rice; [3]): 0
Rice plant response rating (rice; [4]): 0
Plant response rating, Nutsedge (purple nutsedge; [5]): 0
Plant response rating, Nutsedge (purple nutsedge; [12]): 0
Nutsedge plant response rating (purple nutsedge; [8]): 0
Nutsedge plant response rating (purple nutsedge; [9]): 0
Plant response rating, Nutsedge (purple nutsedge; [10]): 0
Plant response rating, Nutsedge (purple nutsedge; [11]): 0
